Results taken from patent publication US20210317408A1, “METHODS AND COMPOSITIONS FOR GENETICALLY MODIFYING LYMPHOCYTES IN BLOOD OR IN ENRICHED PBMCS” (Exuma Biotech Corp., priority 2018, published 2021).

Legend:
unstimulated PBMCs = experiment: Time course of lentiviral transduction of unstimulated PBMCs, 4 hours to less than 1 minute; type: cell-based, human; conditions: 10 μM during 4 hour transduction, replenished in recovery medium
[1] = tested on: transduced human PBMCs expressing a CAR in CHO, CHO-ROR2 or CHO-AXL tumors; experiment: miRNA library in vivo screen: miRNA blocks recovered from tumors 20 days after dosing transduced PBMCs; parameters: species or system mouse; conditions: conclusion from miRNA constructs recovered from tumors at day 20
Text: 108 gBlocks® Gene Fragments were used to generate a library of constructs each containing 4 miRNA precursors in series in positions 1 (P1), 2 (P2), 3 (P3), and 4 (P4). Each gBlock® was specific to P1, P2, P3, or P4 and contained a miR-155 framework (SEQ ID NO:457), including a 5′arm and a 3′arm as described in Example 17 of WO 2019/055946, in which a unique miRNA fragment targeting an mRNA transcript corresponding to 1 of 27 different genes was used to replace the miR-155 stem-loop precursor. For clarity, the sequences of miRNA fragments differed for each position P1-P4 even among miRNA fragments that targeted mRNA transcripts corresponding to the same gene. The gBlocks® for each position contained a unique 40 bp overlap sequence and the type IIs assembly method was used to assemble combinations of four gBlocks® in their prescribed order, to generate the library. By these methods, a total diversity of 531,441 unique constructs (27 miRNA at P1×27 miRNA at P2×27 miRNA at P3×27 miRNA at P4) was possible.
The library of miRNA constructs was separately cloned into the EF-1 alpha intron A of F1-1-315 and F1-2-314 to generate Library 315 and Library 314, respectively. In addition to the EF-1 alpha promoter, F1-1-315 included a CD8a signal peptide, an anti-ROR2:CD28:CD3z CAR, T2A, and an eTag. […]

For `Cc1cc(C)c(Nc2ccnc(Nc3ccc(C#N)cc3)n2)c(C)c1` [dapivirine], the inhibition of transduction (unstimulated PBMCs) was “inhibition of transduction”.

In the case of `C[C@@H]1CCO[C@H]2Cn3cc(C(=O)NCc4ccc(F)cc4F)c(=O)c(O)c3C(=O)N12` [dolutegravir], the inhibition of transduction (unstimulated PBMCs) is reported as “inhibition of transduction”.

B1: SMAD4: miRNA in miR-155 framework directed against SMAD4, SEQ ID NOs:406-409 (nucleic acid)
DNA 1: CGGCACCTGCGCTGCCGTTGGATCGGGGATGAAAGCTGGCGCTGGAGGCTTGCTGAAGGCTGTATGCTGAATTAGGTGTGTATGGTGCAGGTTTTGGCCACTGACTGACCTGCACCACACACCTAATTCAGGACACAAGGCCTGTTACTAGCACTCACATGGAACAAATGGCCCACATTGGTGCCGGATGAAGCTCTTATGTTGCGTCCCATCGCAGGTGCCT
DNA 2: CCTCACCTGCTTGCGTCCCATTCTGGAGGCTTGCTGAAGGCTGTATGCTGAAGTACTTCGTCTAGGAGCTGGTTTTGGCCACTGACTGACCAGCTCCTACGAAGTACTTCAGGACACAAGGCCTGTTACTAGCACTCACATGGAACAAATGGCCGTTGCCTGAGTCTTGGCAGCGAGAGATCACTAACTGCTAAGCAGGTGCTT
DNA 3: TGTCACCTGCACTAACTGCTAACTGGAGGCTTGCTGAAGGCTGTATGCTGTATCCCACGATCTACTCCCCGGTTTTGGCCACTGACTGACCGGGGAGTATCGTGGGATACAGGACACAAGGCCTGTTACTAGCACTCACATGGAACAAATGGCCGTGTTAATTGTCCATGTAGCGAGGCATCCTTATGGCGTGGGCAGGTGTCC
DNA 4: CCTTCACCTGCCTTATGGCGTGGCTGGAGGCTTGCTGAAGGCTGTATGCTGTTATGATGGTAAGTAGCTGGCGTTTTGGCCACTGACTGACGCCAGCTATACCATCATAACAGGACACAAGGCCTGTTACTAGCACTCACATGGAACAAATGGCCGGTGTCCGTTATCGGGGAAGAAGGTCGCGCACATAGCAGGTGTCC
modifications: Synthetic SMAD4 miRNA at P1; Synthetic SMAD4 miRNA at P2; Synthetic SMAD4 miRNA at P3; Synthetic SMAD4 miRNA at P4
In the case of B1, the “effect of knocking down the transcript on T cells in the tumor microenvironment” value [1] is reported as “promote the survival and/or proliferation of T cells”.
